Tests used:
Assay type in all cases: physicochemical
[1] = Room temperature stability test (XRPD before and after storage); details: sealed in medicinal low-density polyethylene bag, 180 days
Description: The detection instruments and conditions used in the following examples are as follows: • (1) X-Ray Powder Diffraction (XRPD) • Instrument Model: Bruker D8 advance, equipped with a LynxEye detector • Test conditions: the anode target material was copper, the light pipe was set to (40 KV 40 mA), the 2θ scan angle for the sample was from 3° to 40°, and scan step was 0.02°. • (2) Differential Scanning Calorimetry Analysis (DSC) • Instrument Model: TA Discovery DSC 250 (TA Instruments, US) • Test conditions: the heating rate was 10° C./min, and dry nitrogen was used as the purge gas. • (3) Thermogravimetric Analysis (TGA) • Instrument Model: Discovery TGA 55 (TA Instruments, US) • Test conditions: automatic weighing in the heating furnace, the heating rate was 10° C./min, and dry nitrogen was used as the purge gas. • (4) Polarizing Microscope Analysis (PLM) • Instrument Model: Polarizing Microscope ECLIPSE LV100POL (Nikon, JPN) […]

[2] = High temperature stability test (XRPD); details: 60° C.
Description: (§1) The detection instruments and conditions used in the following examples are as follows: • (1) X-Ray Powder Diffraction (XRPD) • Instrument Model: Bruker D8 advance, equipped with a LynxEye detector • Test conditions: the anode target material was copper, the light pipe was set to (40 KV 40 mA), the 2θ scan angle for the sample was from 3° to 40°, and scan step was 0.02°. • (2) Differential Scanning Calorimetry Analysis (DSC) • Instrument Model: TA Discovery DSC 250 (TA Instruments, US) • Test conditions: the heating rate was 10° C./min, and dry nitrogen was used as the purge gas. • (3) Thermogravimetric Analysis (TGA) • Instrument Model: Discovery TGA 55 (TA Instruments, US) • Test conditions: automatic weighing in the heating furnace, the heating rate was 10° C./min, and dry nitrogen was used as the purge gas. • (4) Polarizing Microscope Analysis (PLM) • Instrument Model: Polarizing Microscope ECLIPSE LV100POL (Nikon, JPN)
The stability of the crystalline form I prepared in Example 2 was investigated at 60° C., and the XRPD pattern was measured with a Bruker D8 advance X-ray powder diffractometer (see FIG. 19).

[3] = High humidity stability test (XRPD); details: 92.5% RH/25° C., after 5, 10 and 30 days
Description: as §1
The stability of the crystalline form I prepared in Example 2 was investigated under a condition of 92.5% RH/25° C., and the XRPD pattern was measured with a Bruker D8 advance X-ray powder diffractometer (see FIG. 20).

[4] = Physical grinding stability test (XRPD); details: physically ground for 2 minutes
Description: as §1
The crystalline form I prepared in Example 2 was physically ground for 2 minutes, and then the XRPD pattern was measured with a Bruker D8 advance X-ray powder diffractometer (see FIG. 21).

SMILES: C#Cc1cc(Oc2cnc(N)nc2N)c(C(C)C)cn1 [crystalline form I, 5-((2-ethynyl-5-isopropylpyridin-4-yl)oxy)pyrimidine-2,4-diamine]
- change in the crystalline form (XRPD) after storage at room temperature [1]: no change in the crystalline form
- change in the crystalline form after storage under a high temperature condition (summary statement) ([2]; 30 days): its crystalline form did not change
- change in the crystalline form (XRPD) at high temperature ([2]; after 5, 10 and 30 days): no change in the crystalline form
- change in the crystalline form (XRPD) at high humidity [3]: no change in the crystalline form
- change in the crystalline form (XRPD) after physical grinding [4]: no change in the crystalline form
